Test results taken from US11542475B2, “3D microphysiologic system” (Northwestern University, priority 2014, dated 2023).

System: IGF1 secretion by human fallopian epithelium
Assay: hIGF1 immunoblot of fallopian epithelium conditioned medium
Type: cell-based
Protocol: Human fallopian tissue was obtained from routine hysterectomies from women in their reproductive years (ages range from 26 to 50 years old) and who had not undergone exogenous hormonal treatment for at least three months prior to surgery. Informed consent was obtained from each patient and approval granted by the ethics committee of the Northwestern University. Human fallopian tissue was kept in the DMEM/F12 medium with 10% FBS on ice and processed within 24 hours. The tissue was washed with warm PBS solution two times before being transferred into warm dissection medium (Liebowitz 15 with 0.5% P/S and 10% FBS). After cleaning connective tissue from outside of the fallopian tissue, the fallopian tube was cut open and the inner epithelia layer was mechanically dissected using forceps. […] Tissue was cultured on 0.4 μm pore Millicell inserts (PICM03050, EMD Millipore Co, Billerica, Mass., USA) twelve-well plates with culture medium in a 37° C. and 5% CO2 incubator. Estrogen (E2) and progesterone (P4) used in tissue culture experiments were purchased from Sigma (St. Louis, Mo.).
Cultured human fallopian epithelia layers were homogenized with a minipestle in ice-cold lysis buffer (20 mM Tris-HCl, pH 8.0, 137 mM NaCl, 10% glycerol, 1% NP-40, 2 mM EDTA). Lysate normalized for protein content was loaded into NuPAGE 4-12% gradient Bis-Tris precast SDS-PAGE gels and transferred to a nitrocellulose membrane (Life Technologies, Carlsbad, Calif., USA). Blots were probed by polyclonal anti-OVGP1 antibody (LsBio, Cambridge, Mass.) overnight in 4° C. followed by anti-rabbit secondary antibody conjugated to horseradish peroxidase (Zymed, San Francisco, Calif.). Proteins were detected by ECL primer (GE HealthCare Life Sciences, Pittsburgh, Pa.) and exposed to X-ray film (Kodak, Rochester, N.Y.). The same blot was stripped using stripping buffer (Thermo Scientific, Hanover Park, Ill.) and re-probed with monoclonal anti-α-tubulin (Sigma, St. Louis, Mo.) followed by an anti-mouse secondary antibody conjugated to horseradish peroxidase. NIH ImageJ Imaging Software was used to quantify the density of western blot bands. Conditioned medium from fallopian epithelia cultures was collected and probed via western blot analysis using a polyclonal anti-hIGF1 antibody (abcam, Cambridge, Mass.). The blot was detected by the same method described above.
Fallopian epithelia layers cultured on […] inserts were pre-cultured in the alpha-MEM with 0.3% BSA, ITS and 1% P/S medium for two days. Cell culture medium was collected for the glucose ELISA assay (abcam, Cambridge, Mass.). Medium was diluted 1:500 and ELISA was performed according to the protocol provided by the kit. […]

In the case of `C[C@]12CC[C@@H]3c4ccc(O)cc4CC[C@H]3[C@@H]1CC[C@@H]2O` [E2, estradiol], the IGF1 secretion (7 days culture, 1 nM E2, P4 added to E2) is reported as “induced” and the IGF1 secretion (28 days stepwise E2 and P4 treatment, P4 in the presence of E2) is reported as “stimulated”.
